Assay: Nanoindentation (hardness and elastic modulus) of remineralized enamel sections
Parameters: species or system human
Details: demineralization 2 h pH 4.6; 7-day mineralization cycle in artificial saliva, daily application, hydrogels 0.2 mg/ml; mean ± SD
Protocol: To enhance the mechanical responses, the remineralization cycle was optimized and extended to 7 days. After demineralization, each tooth setting (comprising 3 or 4 teeth sections) was placed into separate cylindrical containers containing remineralization solution (30 ml, pH 7, RT) for 1 week. Experimental groups included healthy enamel, demineralized enamel, control (900 ppm F^−; 0.2% NaF), P26-CS and P32-CS (n = 3 per group).
Every 24 h after the start of the remineralization cycle, 30 μL of NaF solution (900 ppm F^−; 0.2% NaF) was added on top of each tooth for 10 min per day. The teeth were gently rinsed in distilled water and dried. A fresh 20 μl treatment application (P26-CS and P32-CS) was made to each window, followed by air drying for 15 min at RT and then the samples were returned to the fresh stock of remineralization solution. The remineralization solution and peptide were replaced daily. After 1 week of daily treatment application, the slices were sonicated, rinsed, dried, and stored in distilled water at 4°C for nanoindentation. The hardness and elastic modulus of the peptide-mediated mineralized layers were evaluated by nanoindentation tests. The device was calibrated to examine the mechanical properties of the remineralized HAP layers on teeth slices at the nanoscale. […]

With `[F-].[Na+]` [0.2% NaF, NaF] the “elastic modulus of regrown enamel (nanoindentation)” value was 40.57 ± 15.8 GPa and the “hardness of regrown enamel (nanoindentation)” value was 1.3 ± 0.6 GPa.

Reference: paper PMC10611442, “Amelogenin Peptide-Chitosan Hydrogel for Biomimetic Enamel Regrowth” (Frontiers in dental medicine, 2021)
